Results reported in US20100247489A1, “USE OF A COMPOSITION MADE OF MINERAL NUTRIENTS AND OPTIONALLY ACETOGENIC AND/OR BUTYROGENIC BACTERIA IN ORDER TO AVOID OR REDUCE THE FORMATION OF GAS IN THE LARGE INTESTINE OF A MAMMAL AND THE RESULTING ABDOMINAL PROBLEMS” (priority 2006, published 2010).

What was measured:
[1] = tested on: Feces samples from 20 persons; assay: Incubation of homogenized feces samples with fructose and minerals, gas-meter (Example 3); parameters: species or system human; settings: 1 g fructose per 100 g of feces; for reduction in the amount of gas, in words: 20 feces samples; for amounts of gas: incubated at 37°, control 150 ml
Experimental: The incubation containers were all added with 1 g fructose per 100 g of feces, and additionally with 1. Selenium 20 μg; 2. 40 μg tungsten, 3. […] 20 μg Selenium plus 40 μg molybdenum; 6. 40 μg Selenium plus 20 μg tungsten plus 1 drop multivitamin solution “Multibionta”, 7. 40 μg Selenium plus 20 μg tungsten plus 1 drop multivitamin solution “Multibionta” plus 1 mg of iron plus 20 μg nickel. A control tank was added only with fructose.
The incubation containers were fitted with a gas-meter, sealed gas-tight and incubated at 37°.

meteorism = assay: Person with meteorism after fiber-rich meals (Examples 15 and 16); assay type: in vivo, human; settings: 1.5 mg three times daily in water, after one week of treatment
Experimental: A person who suffers from meteorism after eating fiber-rich meals is treated three times daily with 1.5 mg of sodium tungstate, which is dissolved in water administered with the drinking fluid during the main meals.
A person who suffers from meteorism after eating fiber-rich meals is treated three times daily with 1.5 mg of sodium tungstate, which is dissolved in 100 ml water with the addition of 100 mg phytic acid and is allowed to rest for 30 minutes, and is administered to the main meals with the drinking fluid.

| Compound | reduction in the amount of gas, in words [1] | amounts of gas [1] [mL] | meteorism (meteorism) |
| --- | --- | --- | --- |
| [W] [W, tungsten] | significant gas reduction | 100 | – |
| [Na+].[Na+].[O]=[W](=[O])([O-])[O-] [sodium tungstate] | – | – | significantly decreases |
| Selenium | significant gas reduction | 110 | – |
